Measurements from PMC7503981, “Plant Nitrilase Homologues in Fungi: Phylogenetic and Functional Analysis with Focus on Nitrilases in Trametes versicolor and Agaricus bisporus” (Molecules, 2020).

Tests used:
NitTv1 = molecular target: T1, NitTv1 (Trametes versicolor, UniProt P9WEU6); assay: spectrophotometric ammonia assay; […] substrate; format: biochemical; conditions: read-out: Substrate β-CA / Vmax [U mg^-1 rotein)] KM (mM) / NLase Activity ^2; NLase (Asp + ammonia forming) activity; no asparaginase added for NLase activity; 50 mM Tris/HCl, 150 mM NaCl, pH 8.0, 30 °C
T1 construct: gene nit; catalytic tetrad E46, K133, E140, C178

NitAb = test system: T2, NitAb; assay: spectrophotometric ammonia assay; […] substrate; format: biochemical, Agaricus bisporus; conditions: NLase (Asp + ammonia forming) activity; no asparaginase added for NLase activity; 50 mM Tris/HCl, 150 mM NaCl, pH 8.0, 30 °C; read-out: Substrate β-CA / Vmax [U mg^-1 rotein)] KM (mM) / NLase Activity ^2
T2 construct: catalytic tetrad E45, K157, E164, C195

T1 sequence (P9WEU6 whole entry): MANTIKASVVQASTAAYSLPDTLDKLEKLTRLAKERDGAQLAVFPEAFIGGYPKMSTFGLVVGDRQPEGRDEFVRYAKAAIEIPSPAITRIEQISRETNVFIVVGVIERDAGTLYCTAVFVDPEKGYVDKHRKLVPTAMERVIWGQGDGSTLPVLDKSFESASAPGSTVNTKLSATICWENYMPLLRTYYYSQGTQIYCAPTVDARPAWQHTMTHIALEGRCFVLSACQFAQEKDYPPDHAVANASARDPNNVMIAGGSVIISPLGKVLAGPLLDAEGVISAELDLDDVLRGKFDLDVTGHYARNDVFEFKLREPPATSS

N#CC[C@H](N)C(=O)O [β-CA, β-cyano-L-alanine]
Km (NitTv1): 7.72 ± 1.82 mM
Km (NitAb): 7.38 ± 1.4 mM
